In patent US10781444B2, “Functional genomics using CRISPR-Cas systems, compositions, methods, screens and applications thereof” (THE BROAD INSTITUTE, INC., priority 2013, dated 2020):

Experiments:
[1] = test system: human EMX1 locus; assay: Surveyor nuclease assay for genome modification at the human EMX1 locus in HEK 293FT cells; format: cell-based; details: co-expression with EMX1-targeting chimeric crRNA, n=3
Method: Mouse neuro2A (N2A) cell line (ATCC) was maintained with DMEM supplemented with 5% fetal bovine serum (HyClone), 2 mM GlutaMAX (Life Technologies), 100 U/mL penicillin, and 100 μg/mL streptomycin at 37° C. with 5% CO2.
Cells were transfected using Lipofectamine 2000 (Life Technologies) following the manufacturer's recommended protocol. For each well of a 24-well plate a total of 800 ng of plasmids were used.
Genomic DNA was extracted using the QuickExtract DNA extraction kit (Epicentre) following the manufacturer's protocol. […] Extracted genomic DNA was immediately processed or stored at −20° C.
The genomic region surrounding a CRISPR target site for each gene was PCR amplified, and products were purified using QiaQuick Spin Column (Qiagen) following manufacturer's protocol. […] After re-annealing, products were treated with Surveyor nuclease and Surveyor enhancer S (Transgenomics) following the manufacturer's recommended protocol, and analyzed on 4-20% Novex TBE poly-acrylamide gels (Life Technologies). […] Quantification was based on relative band intensities, as a measure of the fraction of cleaved DNA.

[2] = test system: on-target and off-target genomic loci (NF2, NF1, MED12 and other top-ranking genes); assay: Deep sequencing of on-target and off-target loci for allele modification in A375 cells; format: cell-based, human; details: 7 and 14 days post-transduction
From the text: Applicants validated top ranking genes from the GeCKO screen individually using 3-5 sgRNAs (FIGS. 28C-E, 38, 39). […] Applicants compared sgRNA and shRNA-mediated protein depletion and PLX resistance using Western blot (FIG. 28D) and cell growth assays (FIG. 28E). […] Additionally, sgRNAs targeting NF1, MED12, CUL3, TADA1, and TADA2B led to a decrease in protein expression and increased resistance to PLX (FIGS. 38, 39).
Screening timeline considerations: After infection, cells are selected with puromycin. For most cell types, 0.5-2 ug/ml puromycin works well, although the minimum dose that kills all cells without any viral transduction should be determined in advance and the minimum concentration should be used for selection. […] As shown in the deep sequencing of the individual target (array) validations from the PLX resistance screen gene hits, genome modification increases over time. For most targets, genome modification was nearly complete after only 7 days.
Sequencing data analysis and indel detection: Off target loci in the human genome were identified for individual spacers using the CRISPR design tool (available at the website tools.genome-engineering.org). On-target and off-target loci were PCR amplified using Herculase II Fusion polymerase (Agilent), normalized, and pooled in equimolar proportions. Pooled libraries were denatured, diluted to a 14 pM concentration and sequenced using the MiSeq Personal Sequencer (Illumina). Sequencing data was demultiplexed using paired barcodes, aligned to reference amplicons, and analyzed for indels as described previously. Indel length analysis was performed by mapping the distance between multiple short reference sequences in individual reads.

Row | Substance | off-target modification over time [2] | also measured
1 | SpCas9n: SpCas9 nickase with aspartate-to-alanine substitution (D10A) in the RuvC I catalytic domain |  | indels at the EMX1 protospacer target (Surveyor assay) [1]: does not generate indels
2 | NF2_sg4: sgRNA 20 bp sequence GTACTGCAGTCCAAAGAACC (expressed or natural sequence) | off-target modification also increases with time | 
3 | MED12_sg2: sgRNA 20 bp sequence CGTCAGCTTCAATCCTGCCA (expressed or natural sequence) | off-target modification also increases with time | 
4 | NF2_sg5: sgRNA 20 bp sequence CACAGTGGCCTGGCTCAAAA (expressed or natural sequence) |  | on-target genome modification over time [2]: lower modification that increased by 14 days post-transduction
